Measured values: patent publication US12036196B2, “Compositions and methods for the sustained release of beta-alanine” (Natural Alternatives International, Inc., priority 2005, dated 2024)

Experiments:
[1] = Paraesthesia symptoms after ingesting edible gel or beta-alanine dissolved in water (Example 1); type: in vivo, human; details: 2 g beta-alanine ingested; following 20 minutes
Method: To prepare an edible gel containing free beta-alanine the contents of two packets of commercially available strawberry flavored gelatin gel were dissolved in 200 ml of boiling water. The contents were stirred continuously until the gel was completely dissolved. The gel was further fortified with the addition of a sachet of gelatin capsules. To this was added 80 g free beta-alanine (in a final volume of approximately 300 ml). The concentrated gel solution was poured into a 12×12 cm flat mould to a depth of approximately 2 cm and allowed to set to a stiff gel at 4° C. One square piece of gel (approximately 2×2×2 cm in size) contained approximately 2 g of beta-alanine.
In contrast, symptoms of paraesthesia were detected in subjects that ingested 2 g free beta-alanine dissolved in water. Thus the sustained release of free beta-alanine mitigates the symptoms of paraesthesia that are felt when equivalent amounts are administered in a single bolus dose.

[2] = bolus single dose of 2-6 grams
[3] = Paraesthesia symptoms, drink versus delayed release capsules (Example 3); type: in vivo, human; details: 1.75 g beta-alanine; two subjects
Text: Two subjects were given 1.75 g beta-alanine dissolved in water (formulated as a drink) or 5 capsules, each containing 0.35 g beta-alanine in a delayed release formulation.

muscle [4] = details: following administration (supplementation); previous work; cited from earlier work
muscle [5] = details: administering to an individual
Text: The dosing schedule that has been preferred for such administration (i.e., 8 times daily), however, leads to compliance issues and problems with paraesthesia. Thus, there is a need for improved supplements containing free beta-alanine or a biological source thereof in a sustained release formulation to increase compliance and decrease paraesthesia events.
During sustained intensive exercise or exercise sustained under conditions of local hypoxia, the accumulation of hydronium ions formed during glycolysis and the accumulation of lactate due to anaerobic metabolism can severely reduce the intracellular pH. The reduced pH can compromise the function of the creatine-phosphorylcreatine system. The decline in intracellular pH also can affect other functions within the cells such as the function of the contractile proteins in muscle fibers.

NCCC(=O)O [beta-alanine]
symptoms of paraesthesia [1]: detected | paraesthesia [2]: results in paraesthesia | symptoms of paraesthesia [3]: reported symptoms of paraesthesia affecting the face, scalp, neck, arms, hands and buttocks | carnosine in muscle (muscle [4]): significantly increased | muscle beta-alanylhistidine peptide levels (muscle [5]): elevated | total work capacity of the muscle (muscle [5]): increased
